We go through one compound from PMC6271698, “Immobilization of Horseradish Peroxidase on NH2-Modified Magnetic Fe3O4/SiO2 Particles and Its Application in Removal of 2,4-Dichlorophenol” (Molecules, 2014).

The subject of the assay is T1, Horseradish peroxidase (HRP).
T1 construct: gene PRXC1A; free enzyme
Briefly: colorimetric peroxidase assay, Lineweaver-Burk plot. The following applies: free enzyme, not immobilised; co-substrate H2O2 (concentration not stated); pH and temperature not stated; read-out: Kmapp. In kind it is biochemical.

`CCN(CC)c1ccc(N)cc1` [DPD, N,N-diethyl-p-phenylenediaminesulfate]: the Km stood at 500 µM.
